According to US6737383B1, “Herbicidal oxadiazolidines” (priority 1999, dated 2004):

Assays:
surinam grass = assay: Test B pre/postemergence surinam grass; assay type: in vivo, Brachiaria decumbens
Method in brief: (§1)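 Herbicidal effect was estimated by eye on a ten-point control scale after plants spent twelve to sixteen days in a greenhouse following soil or foliar treatment. Foliar sprays targeted plants at one to four leaves; all doses were formulated in a non-phytotoxic solvent with surfactant.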

cocklebur = assay: Test B pre/postemergence cocklebur; assay type: in vivo, Xanthium strumarium
Method in brief: as §1

corn = assay: Test B pre/postemergence corn; assay type: in vivo, Zea mays
Method in brief: as §1

sugar beet = assay: Test B pre/postemergence sugar beet; assay type: in vivo, Beta vulgaris
Method in brief: as §1

bedstraw = assay: Test B pre/postemergence bedstraw; assay type: in vivo, Galium aparine; conditions: Postemergence
Method in brief: as §1

rice = assay: Test B flood test rice; assay type: in vivo, Oryza sativa
Method in brief: (§2)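 Flood test on plants grown to the 2-leaf stage; treated plants kept in greenhouse twelve to sixteen days, then visually rated against controls on a 0 (no effect) to 10 (complete control) scale.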

pigweed = assay: Test B pre/postemergence pigweed; assay type: in vivo, Amaranthus retroflexus
Method in brief: as §1

smallflower flatsedge = assay: Test B flood test smallflower flatsedge; assay type: in vivo, Cyperus difformis
Method in brief: as §2

wheat = assay: Test B pre/postemergence wheat; assay type: in vivo, Triticum aestivum
Method in brief: as §1

purple nutsedge = assay: Test B pre/postemergence purple nutsedge; assay type: in vivo, Cyperus rotundus
Method in brief: as §1

wild oat = assay: Test B pre/postemergence wild oat; assay type: in vivo, Avena fatua
Method in brief: as §1

velvetleaf = assay: Test B pre/postemergence velvetleaf; assay type: in vivo, Abutilon theophrasti
Method in brief: as §1

soybean = assay: Test B pre/postemergence soybean; assay type: in vivo, Glycine max
Method in brief: as §1

duck salad = assay: Test B flood test duck salad; assay type: in vivo, Heteranthera limosa
Method in brief: as §2

rape = assay: Test B pre/postemergence rape; assay type: in vivo, Brassica napus
Method in brief: as §1

giant foxtail = assay: Test B pre/postemergence giant foxtail; assay type: in vivo, Setaria faberii
Method in brief: as §1

[1] = Postemergence, Rate 500 g/ha, scale of 0 to 10 where 0 is no effect and 10 is complete control
[2] = Preemergence, Rate 62 g/ha, scale of 0 to 10 where 0 is no effect and 10 is complete control
[3] = Preemergence, Rate 125 g/ha, scale of 0 to 10 where 0 is no effect and 10 is complete control
[4] = Preemergence, Rate 250 g/ha, scale 0 to 10, 0 is no effect, 10 is complete control
[5] = Preemergence, Rate 500 g/ha, scale 0 to 10, 0 is no effect, 10 is complete control
[6] = Rate 62 g/ha, Postemergence, scale 0 to 10, 0 no effect, 10 complete control
[7] = Rate 125 g/ha, Postemergence, scale 0 to 10, 0 is no effect, 10 is complete control
[8] = Postemergence, Rate 250 g/ha, scale 0 to 10
[9] = Rate 62 g/ha, flood test species, Pre-emergence, visual evaluation after twelve to sixteen days
[10] = Rate 125 g/ha, under heading Pre-emergence, flood test species, visual evaluation after twelve to sixteen days
[11] = Rate 250 g/ha, Pre-emergence (flood test species), scale 0 to 10, 0 is no effect, 10 is complete control
[12] = Rate 500 g/ha, Pre-emergence, flood test species, scale 0 to 10 (0 no effect, 10 complete control)

## CC(C)N(C(=O)n1oc(=O)n(CCl)c1=O)c1ccc(F)cc1F [Compound 437]
Surinam grass; Postemergence, Rate 250 g/ha, scale 0 to 10, 0 no effect, 10 complete control
  B. signalgrass plant response rating: 0
Surinam grass; [1]
  B. signalgrass plant response rating: 0
Surinam grass; [2]
  Plant response rating, B. signalgrass: 0
Surinam grass; [3]
  Plant response rating, B. signalgrass: 0
Surinam grass; [4]
  B. signalgrass plant response rating: 0
Surinam grass; [5]
  B. signalgrass plant response rating: 0
Surinam grass; [6]
  B. signalgrass plant response rating: 0
Surinam grass; [7]
  B. signalgrass plant response rating: 0
cocklebur; [8]
  Cocklebur plant response rating: 0
cocklebur; [1]
  Cocklebur plant response rating: 1
cocklebur; [2]
  Plant response rating, Cocklebur: 0
cocklebur; [3]
  Plant response rating, Cocklebur: 0
cocklebur; [4]
  Cocklebur plant response rating: 0
cocklebur; [5]
  Cocklebur plant response rating: 0
cocklebur; [6]
  Cocklebur plant response rating: 0
cocklebur; [7]
  Cocklebur plant response rating: 0
corn; [8]
  Corn plant response rating: 0
corn; [1]
  Corn plant response rating: 0
corn; [2]
  Plant response rating, Corn: 0
corn; [3]
  Plant response rating, Corn: 0
corn; [4]
  Corn plant response rating: 0
corn; [5]
  Corn plant response rating: 0
corn; [6]
  Corn plant response rating: 0
corn; [7]
  Corn plant response rating: 0
Sugar beet; [8]
  Sugarbeets plant response rating: 0
Sugar beet; [1]
  Sugarbeets plant response rating: 0
Sugar beet; [2]
  Plant response rating, Sugarbeets: 0
Sugar beet; [3]
  Plant response rating, Sugarbeets: 0
Sugar beet; [4]
  Sugarbeets plant response rating: 0
Sugar beet; [5]
  Sugarbeets plant response rating: 0
Sugar beet; [6]
  Sugarbeets plant response rating: 0
Sugar beet; [7]
  Sugarbeets plant response rating: 0
bedstraw; Rate 250 g/ha, scale 0 to 10
  Bedstraw plant response rating: 0
bedstraw; Rate 62 g/ha, scale 0 to 10, 0 no effect, 10 complete control
  Bedstraw plant response rating: 0
bedstraw; Rate 125 g/ha, scale 0 to 10, 0 is no effect, 10 is complete control
  Bedstraw plant response rating: 0
rice; [9]
  Plant response rating, Rice (0 to 10 scale, 0 is no effect, 10 is complete control): 0
rice; [10]
  Rice plant response rating (0 to 10 scale, 0 is no effect, 10 is complete control): 0
rice; [11]
  Rice plant response rating: 0
rice; [12]
  Rice plant response rating: 0
pigweed; [8]
  Redroot pigweed plant response rating: 0
pigweed; [1]
  Redroot pigweed plant response rating: 0
pigweed; [2]
  Plant response rating, Redroot pigweed: 0
pigweed; [3]
  Plant response rating, Redroot pigweed: 0
pigweed; [4]
  Redroot pigweed plant response rating: 0
pigweed; [5]
  Redroot pigweed plant response rating: 0
pigweed; [6]
  Redroot pigweed plant response rating: 0
pigweed; [7]
  Redroot pigweed plant response rating: 0
Smallflower flatsedge; [9]
  Plant response rating, S. Flatsedge (0 to 10 scale, 0 is no effect, 10 is complete control): 0
Smallflower flatsedge; [10]
  S. Flatsedge plant response rating (0 to 10 scale, 0 is no effect, 10 is complete control): 0
Smallflower flatsedge; [11]
  S. Flatsedge plant response rating: 0
Smallflower flatsedge; [12]
  S. Flatsedge plant response rating: 0
wheat; [8]
  Wheat plant response rating: 0
wheat; [1]
  Wheat plant response rating: 0
wheat; [2]
  Plant response rating, Wheat: 0
wheat; [3]
  Plant response rating, Wheat: 0
wheat; [4]
  Wheat plant response rating: 0
wheat; [5]
  Wheat plant response rating: 0
wheat; [6]
  Wheat plant response rating: 0
wheat; [7]
  Wheat plant response rating: 0
Purple nutsedge; [8]
  Nutsedge plant response rating: 0
Purple nutsedge; [1]
  Nutsedge plant response rating: 0
Purple nutsedge; [2]
  Plant response rating, Nutsedge: 0
Purple nutsedge; [3]
  Plant response rating, Nutsedge: 0
Purple nutsedge; [4]
  Nutsedge plant response rating: 0
Purple nutsedge; [5]
  Nutsedge plant response rating: 0
Purple nutsedge; [6]
  Nutsedge plant response rating: 0
Purple nutsedge; [7]
  Nutsedge plant response rating: 0
Wild oat; [8]
  Wild oats plant response rating: 0
Wild oat; [1]
  Wild oats plant response rating: 3
Wild oat; [2]
  Plant response rating, Wild oats: 0
Wild oat; [3]
  Plant response rating, Wild oats: 0
Wild oat; [4]
  Wild oats plant response rating: 0
Wild oat; [5]
  Wild oats plant response rating: 0
Wild oat; [6]
  Wild oats plant response rating: 0
Wild oat; [7]
  Wild oats plant response rating: 0
velvetleaf; [8]
  Velvetleaf plant response rating: 0
velvetleaf; [1]
  Velvetleaf plant response rating: 0
velvetleaf; [2]
  Plant response rating, Velvetleaf: 0
velvetleaf; [3]
  Plant response rating, Velvetleaf: 0
velvetleaf; [4]
  Velvetleaf plant response rating: 0
velvetleaf; [5]
  Velvetleaf plant response rating: 0
velvetleaf; [6]
  Velvetleaf plant response rating: 0
velvetleaf; [7]
  Velvetleaf plant response rating: 0
soybean; [8]
  Soybean plant response rating: 0
soybean; [1]
  Soybean plant response rating: 2
soybean; [2]
  Plant response rating, Soybean: 0
soybean; [3]
  Plant response rating, Soybean: 0
soybean; [4]
  Soybean plant response rating: 0
soybean; [5]
  Soybean plant response rating: 0
soybean; [6]
  Soybean plant response rating: 0
soybean; [7]
  Soybean plant response rating: 0
Duck salad; [9]
  Plant response rating, Ducksalad (0 to 10 scale, 0 is no effect, 10 is complete control): 0
Duck salad; [10]
  Ducksalad plant response rating (0 to 10 scale, 0 is no effect, 10 is complete control): 0
Duck salad; [11]
  Ducksalad plant response rating: 0
Duck salad; [12]
  Ducksalad plant response rating: 0
rape; [8]
  Rape plant response rating: 0
rape; [1]
  Rape plant response rating: 0
rape; [2]
  Plant response rating, Rape: 0
rape; [3]
  Plant response rating, Rape: 0
rape; [4]
  Rape plant response rating: 0
rape; [5]
  Rape plant response rating: 0
rape; [6]
  Rape plant response rating: 0
rape; [7]
  Rape plant response rating: 0
Giant foxtail; [8]
  Giant foxtail plant response rating: 0
Giant foxtail; [1]
  Giant foxtail plant response rating: 7
Giant foxtail; [2]
  Plant response rating, Giant foxtail: 0
Giant foxtail; [3]
  Plant response rating, Giant foxtail: 0
Giant foxtail; [4]
  Giant foxtail plant response rating: 0
Giant foxtail; [5]
  Giant foxtail plant response rating: 3
Giant foxtail; [6]
  Giant foxtail plant response rating: 0
Giant foxtail; [7]
  Giant foxtail plant response rating: 0
